The target of data set [1] is T1, CK1α (Homo sapiens, UniProt P48729).
T1 construct: HEK293 clonal lines with CRISPR KI HiBiT tag on CSNK1A1
The data set can be described thus: CK1α NanoBit Assay (HiBiT-tagged CSNK1A1, HEK293 clonal lines). In kind it is cell-based. Conditions: HEK293 HiBiT-CSNK1A1/LgBiT cells, 24 h incubation. Put shortly: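 HEK293 clones carrying a CRISPR knock-in HiBiT tag on CSNK1A1 and stably expressing LgBiT are treated with compound for 24 hours at 37° C, 5% CO2, then read by luminescence. Response is normalized as 100*(S−N)/(P−N) against plate negative and positive controls, and DC50 values are derived.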
On the technique in general: HiBiT is a short tag that completes a luciferase, so light tracks the accessible tagged protein.

Data set [2] concerns the target T2, CK1α (Homo sapiens, UniProt P48729+Q96SW2).
T2 construct: HEK293 clonal lines with CRISPR KI HiBiT tag on CSNK1A1
The data set can be described thus: Western blot of CK1α levels in HEK293 and HEK293 CRBN knock out cells. Conditions: 0.1, 1, 10 μM, 24 hours, FIG. 1. In kind it is cell-based. How it is done: HEK293 cell line was purchased from ATCC (CRL-1573). HEK293 CRBN knock out (k/o) cell line (B2) was generated internally using CRISPR/Cas9 method and clonally expanded. Cells were plated at 2×10^5 cells per well in 6-well tissue culture plates (VWR) in 2 ml of DMEM media (Gibco) containing 10% FBS (Gibco), and incubated for 16 hours at 37° C., 5% CO2. Compounds were added to final concentration of 0.1 μM, 1 μM, 10 μM (DMSO concentration was kept constant at 0.1%), following incubation at 37° C., 5% CO2 for additional 24 hours. Cell lysis was performed using RIPA buffer (Pierce) containing Halt™ Protease Inhibitor Cocktail (ThermoFisher Scientific). Lysates were boiled at 95° C. for 10 minutes and 12 μg of protein lysate per sample was resolved by SDS-PAGE using 12% gels (BioRad) and transferred to nitrocellulose membrane (BioRad). Membranes were blocked using LI-COR blocking buffer (LI-COR) at room temperature for 1 hour, followed by overnight incubation with rabbit anti-CK1α (Abcam ab206652), rabbit anti-CRBN (Sigma HPA045910) and mouse anti-α-tubulin (Sigma T9026) antibodies at 4° C. Secondary antibodies (LI-COR) were added for 1 hour at room temperature, followed by imaging with LI-COR imaging system Odyssey® CLx.

The next data set has as its system SKCO1 cell line. The experiment in a line: Growth inhibition, CyQUANT Direct Cell Proliferation Assay, SKCO1. In kind it is cell-based. Conditions: Homo sapiens, SK-CO-1; SKCO1, 120 to 168 hours; read-out: SKCO1 GI50. The method in brief: (§1)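 Cells seeded 300 to 1,800 per well, day-0 CyQUANT Direct read after overnight attachment; 9-point 3-fold dilutions from 30 μM top concentration, 120 to 168 h exposure, 0.3% DMSO control. Fluorescence Ex/Em 480/520 nm; growth inhibition normalised to day-0 and untreated day-N signals, GI50 at 50% of untreated control.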

A further data set deals with LS180 cell line. The data set can be described thus: Growth inhibition, CyQUANT Direct Cell Proliferation Assay, LS180. In kind it is cell-based. Conditions: Homo sapiens; LS180, 120 to 168 hours; read-out: LS180 GI50. Put shortly:
as §1

Data set [3] in a line: Oral pharmacokinetics in male BALB/c mice. The format is in vivo. The settings on record: mouse, PO 10 mg/kg, plasma, mean ± SD. How it is done:
Male BALB/c mice were administered a discrete, oral (PO) dose of Compound 288, Compound 335, Compound 102, or Compound 303 at 10 mg/kg; all mice were fasted except for mice that were dosed with Compound 288. Male BALB/c mice were fasted overnight and administered a cassette dose, PO dose of Compound 303 and other compounds at 5 mg/kg per compound.
Blood samples were collected serially from three animals/time-point following PO administration of the test compounds to the mice and placed in tubes containing K2EDTA. The blood samples were centrifuged, and the aliquots of the resulting plasma stored frozen at −60 to −90° C.
The plasma samples were analyzed by LC-MS/MS to determine concentrations of the test compounds. The in-life portion of the study and the bioanalysis of plasma samples was conducted at Wuxi (China).
The pharmacokinetic parameters for the tested compounds were calculated by non-compartmental analysis using Phoenix WinNonlin software.

This is an account of results in patent US20250171420A1 (Monte Rosa Therapeutics, Inc., priority 2022, published 2025).

One may read the GI50 as the concentration giving 50% growth inhibition. As usually defined, the AUC is the area under the concentration-time curve, a measure of exposure. What is called AUC(0-t) is exposure summed from dosing to a finite time, without extrapolation to infinity. A lower AUC(0-t) goes with less exposure. Usually Cmax stands for the peak of the concentration-time curve. In general, Tmax refers to the time from dosing to the highest level.

T2 sequence (P48729 whole entry): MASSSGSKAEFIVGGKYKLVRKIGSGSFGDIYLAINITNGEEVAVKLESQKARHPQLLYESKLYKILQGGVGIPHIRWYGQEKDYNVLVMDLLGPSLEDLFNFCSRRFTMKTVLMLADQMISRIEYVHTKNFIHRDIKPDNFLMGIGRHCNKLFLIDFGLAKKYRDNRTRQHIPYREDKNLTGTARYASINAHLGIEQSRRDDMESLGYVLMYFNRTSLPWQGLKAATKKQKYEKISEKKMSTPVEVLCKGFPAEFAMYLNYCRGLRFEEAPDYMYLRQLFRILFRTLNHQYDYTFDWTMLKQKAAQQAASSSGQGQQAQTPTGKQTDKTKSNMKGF
T2 sequence (Q96SW2 whole entry): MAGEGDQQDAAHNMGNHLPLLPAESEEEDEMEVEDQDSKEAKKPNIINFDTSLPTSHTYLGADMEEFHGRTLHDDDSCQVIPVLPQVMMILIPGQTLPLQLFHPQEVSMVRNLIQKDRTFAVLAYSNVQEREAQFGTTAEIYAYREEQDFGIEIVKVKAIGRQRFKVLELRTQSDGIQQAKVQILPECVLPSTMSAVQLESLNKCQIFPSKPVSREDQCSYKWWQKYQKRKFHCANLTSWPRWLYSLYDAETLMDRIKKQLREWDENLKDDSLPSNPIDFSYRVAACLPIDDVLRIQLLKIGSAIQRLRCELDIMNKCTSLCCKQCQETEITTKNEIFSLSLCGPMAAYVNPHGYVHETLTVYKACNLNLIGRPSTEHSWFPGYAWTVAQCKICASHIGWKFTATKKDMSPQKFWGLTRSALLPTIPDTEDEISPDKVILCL
T2 sequence (Q16531 2-1140 partner limits assumed): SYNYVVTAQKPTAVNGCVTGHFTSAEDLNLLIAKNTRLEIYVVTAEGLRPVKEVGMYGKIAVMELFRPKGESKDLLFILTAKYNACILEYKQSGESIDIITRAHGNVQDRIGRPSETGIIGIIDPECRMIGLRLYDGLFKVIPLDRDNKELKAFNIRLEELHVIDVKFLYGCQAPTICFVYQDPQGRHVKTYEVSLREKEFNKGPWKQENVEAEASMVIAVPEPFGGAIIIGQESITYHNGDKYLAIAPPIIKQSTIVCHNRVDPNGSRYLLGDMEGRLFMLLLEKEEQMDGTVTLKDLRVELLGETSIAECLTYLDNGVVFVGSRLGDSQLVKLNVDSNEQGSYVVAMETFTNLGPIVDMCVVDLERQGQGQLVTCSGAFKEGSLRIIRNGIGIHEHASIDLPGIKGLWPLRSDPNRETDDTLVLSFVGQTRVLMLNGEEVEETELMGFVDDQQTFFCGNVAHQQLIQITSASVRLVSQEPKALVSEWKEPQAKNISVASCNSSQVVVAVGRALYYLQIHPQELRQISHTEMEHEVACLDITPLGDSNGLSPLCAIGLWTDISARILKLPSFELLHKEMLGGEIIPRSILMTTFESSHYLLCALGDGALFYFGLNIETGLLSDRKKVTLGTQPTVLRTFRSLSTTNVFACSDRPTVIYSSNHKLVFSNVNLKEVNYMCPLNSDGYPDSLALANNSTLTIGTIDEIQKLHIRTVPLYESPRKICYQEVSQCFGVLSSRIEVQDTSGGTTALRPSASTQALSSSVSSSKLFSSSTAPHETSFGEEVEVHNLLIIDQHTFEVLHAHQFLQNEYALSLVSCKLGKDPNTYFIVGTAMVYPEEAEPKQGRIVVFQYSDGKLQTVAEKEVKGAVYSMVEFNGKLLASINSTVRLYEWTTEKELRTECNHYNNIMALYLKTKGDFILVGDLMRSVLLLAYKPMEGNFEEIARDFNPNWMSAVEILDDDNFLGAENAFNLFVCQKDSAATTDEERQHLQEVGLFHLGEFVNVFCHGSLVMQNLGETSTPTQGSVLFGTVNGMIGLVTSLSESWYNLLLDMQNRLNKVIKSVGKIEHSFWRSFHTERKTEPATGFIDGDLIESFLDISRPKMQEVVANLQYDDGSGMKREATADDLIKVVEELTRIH
T1 sequence (P48729 whole entry): as the sequence (P48729 whole entry) above
T1 sequence (Q96SW2 whole entry, further chain): as the sequence (Q96SW2 whole entry) above
T1 sequence (Q16531 2-1140 partner limits assumed): as the sequence (Q16531 2-1140 partner limits assumed) above

At CK1α [1], `C[C@@H]1Cc2ccccc2N1C(=O)Nc1ccc2c(c1)CN(C1CCC(=O)NC1=O)C2=O` (stereo partly drawn) [Compound 102, (2R)—N-(2-(2,6-dioxopiperidin-3-yl)-1-oxoisoindolin-5-yl)-2-methylindoline-1-carboxamide] displayed a DC50 below 0.1 µM. The “effect on CK1a levels in HEK293 cell line” value on CK1α [2] (HEK293, cereblon present) is “decreases CK1a levels”. Further, the “effect on CK1a levels in cereblon (CRBN) knock-out HEK293 cell line” value on CK1α [2] (HEK293 CRBN knock-out) was “no effect on CK1a levels”. Further, the GI50 in the data set on SKCO1 cell line was below 100 nM. The GI50 in the data set with LS180 cell line lay within 100 to 1000 nM. In addition, in data set [3], the AUC turned out to be 1040 ± 245 ng·h/mL, the area under the curve AUC(0-t) turned out to be 889 ± 218 ng·h/mL, the Cmax was found to be 361 ± 142 ng/mL and the Tmax was determined as 1.33 ± 0.58 h.
